# US7799775B2, “Pyrimidine derivatives” (ASKA Pharmaceutical Co., Ltd., priority 2004, dated 2010)
# Target: T1, human 5-HT3 receptor (Homo sapiens, UniProt P46098)
# T1 construct: purchased BIOLINKS K.K; host or cells: HEK-293 cells (membrane preparation)
# T1 sequence (P46098 24-478): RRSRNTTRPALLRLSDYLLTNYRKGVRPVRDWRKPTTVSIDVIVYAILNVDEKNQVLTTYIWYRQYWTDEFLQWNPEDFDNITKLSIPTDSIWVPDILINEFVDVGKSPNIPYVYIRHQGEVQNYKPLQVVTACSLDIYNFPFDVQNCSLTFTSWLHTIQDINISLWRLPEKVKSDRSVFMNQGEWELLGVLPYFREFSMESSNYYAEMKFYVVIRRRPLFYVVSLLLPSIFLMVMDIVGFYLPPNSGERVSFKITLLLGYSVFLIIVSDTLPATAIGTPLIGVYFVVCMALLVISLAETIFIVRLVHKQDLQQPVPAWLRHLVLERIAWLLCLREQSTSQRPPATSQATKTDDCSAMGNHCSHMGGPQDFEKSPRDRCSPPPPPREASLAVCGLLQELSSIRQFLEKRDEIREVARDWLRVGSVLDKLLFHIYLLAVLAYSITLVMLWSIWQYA
# Assay: Measurement of affinity to human 5-HT3 receptor (in vitro), [3H]BRL-43694 binding
# Settings: test compound 100 nmols/L; [3H]BRL-43694 0.5 nmols/L; HEK-293 cell membrane expressing human 5-HT3 receptor; read-out: Percent Inhibition (%) on Each Receptor's Binding at 10^−7M, 5-HT3
# Method in brief: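 Membranes from HEK-293 cells expressing the receptor were incubated with 0.5 nmol/L radioligand and compound for 60 min at 25 °C in Tris/MgCl2/EDTA buffer, pH 7.5. Bound radioactivity was collected by filtration and counted. Percent inhibition was corrected for non-specific binding defined with 10 μmol/L tropisetron; compounds were tested at 100 nmol/L.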
row,Structure (SMILES),inhibition at 0.1 µM [%]
1,"c1cc2ccsc2c(N2CCN3CCC[C@H]3C2)n1 [Production Example 103, 7-((8aS)-octahydropyrrolo[1,2-a]pyrazin-2-yl)thieno[2,3-c]pyridine]",99.5
2,"Cc1ccc2ccnc(N3CCN(C)CC3)c2c1 [Production Example 47, 7-methyl-1-(4-methylpiperazin-1-yl)isoquinoline]",93.6
3,"c1cc2ccsc2c(N2CCN3CCC[C@@H]3C2)n1 [Production Example 108, 7-((8aR)-octahydropyrrolo[1,2-a]pyrazin-2-yl)thieno[2,3-c]pyridine]",100
4,"COc1ccc2ccnc(N3CCNC(C)C3)c2c1 (stereo not shown) [Production Example 38, 7-methoxy-1-(3-methylpiperazin-1-yl)isoquinoline]",93.1
5,"Nn1c(CCCCN2CCN(c3ccc4ccccc4n3)CC2)nc2ccccc2c1=O [Example 4-3, 3-amino-2-[4-(4-quinolin-2-ylpiperazin-1-yl)butyl]-3H-quinazolin-4-one]",83.6
6,"c1cc2sccc2c(N2CCN3CCC[C@H]3C2)n1 [Production Example 104, 4-((8aS)-octahydropyrrolo[1,2-a]pyrazin-2-yl)thieno[3,2-c]pyridine]",99.3
7,"Nn1c(CCCCN2CCN(c3ccc4ccccc4n3)CC2)nc2c(c1=O)CCCC2 [Example 4-1, 3-amino-2-[4-(4-quinolin-2-ylpiperazin-1-yl)butyl]-5,6,7,8-tetrahydro-3H-quinazolin-4-one]",81.2
8,"CCn1c(CCCCN2CCN(c3cc(C)c4ccccc4n3)CC2)nc2c(c1=O)CCCC2 [Example 7-7, 3-ethyl-2-[4-[4-(4-methylquinolin-2-yl)piperazin-1-yl]butyl]-5,6,7,8-tetrahydro-3H-quinazolin-4-one]",95
9,"Clc1ccc2ccnc(N3CCN4CCC[C@H]4C3)c2c1 [Production Example 73, 7-chloro-1-((8aS)-octahydropyrrolo[1,2-a]pyrazin-2-yl)isoquinoline]",99.3
10,"Clc1ccc2ccnc(N3CCNCC3)c2c1 [Production Example 49, 7-chloro-1-piperazin-1-ylisoquinoline]",96.3
11,"c1cc2ccoc2c(N2CCN3CCC[C@H]3C2)n1 [Production Example 102, 7-((8aS)-octahydropyrrolo[1,2-a]pyrazin-2-yl)furo[2,3-c]-pyridine]",98.9
12,"Cc1cc(N2CCN(CCCCc3nc4ccccc4c(=O)n3N)CC2)nc2ccccc12 [Example 4-4, 3-amino-2-[4-[4-(4-methylquinolin-2-yl)piperazin-1-yl]butyl]-3H-quinazolin-4-one]",78.6
13,"CN1CCN(c2nccc3ccsc23)CC1 [Production Example 6, 7-(4-methylpiperazin-1-yl)thieno[2,3-c]pyridine]",97.5
14,"Cc1cc2c(N3CCN4CCC[C@H]4C3)nccc2s1 [Production Example 107, 4-((8aS)-octahydropyrrolo[1,2-a]pyrazin-2-yl)-2-methylthieno[3,2-c]-pyridine]",95.9
15,"Nn1c(CCCCN2CCN(c3ccc4ccccc4n3)CC2)nc2ccsc2c1=O [Example 4-18, 3-amino-2-[4-(4-quinolin-2-ylpiperazin-1-yl)butyl]-3H-thieno[3,2-d]-pyrimidin-4-one]",50.9
16,"Nn1c(CCCCN2CCN(c3ccc4ccccc4n3)CC2)nc2cccc(Cl)c2c1=O [Example 4-25, 3-amino-5-chloro-2-[4-(4-quinolin-2-ylpiperazin-1-yl)butyl]-3H-quinazolin-4-one]",43.3
17,"Cn1c(CCCCN2CCN(c3ccc4ccccc4n3)CC2)nc2c(c1=O)CCCC2 [Example 7-1, 3-methyl-2-[4-(4-quinolin-2-ylpiperazin-1-yl)butyl]-5,6,7,8-tetrahydro-3H-quinazolin-4-one]",94.2
18,"Cn1c(CCCCN2CCN(c3ccc4ccccc4n3)CC2)nc2ccccc2c1=O [Example 7-20, 3-methyl-2-[4-(4-quinolin-2-ylpiperazin-1-yl)butyl]-3H-quinazolin-4-one]",92.9
19,"COc1ccc2ccnc(N3CCN4CCC[C@H]4C3)c2c1 [Production Example 72, 1-((8aS)-octahydropyrrolo[1,2-a]pyrazin-2-yl)-7-methoxyisoquinoline]",99.8
20,"CN1CCN(c2nccc3sccc23)CC1 [Production Example 8, 4-(4-methylpiperazin-1-yl)thieno[3,2-c]pyridine]",93.3
21,"Cc1cc(N2CCN(CCCCc3nc4c(c(=O)n3C)CCCC4)CC2)nc2ccccc12 [Example 7-6, 3-methyl-2-[4-[4-(4-methylquinolin-2-yl)piperazin-1-yl]butyl]-5,6,7,8-tetrahydro-3H-quinazolin-4-one]",93.8
22,"CCn1c(CCCCN2CCN(c3ccc4ccccc4n3)CC2)nc2c(c1=O)CCCC2 [Example 7-2, 3-2-[4-(4-quinolin-2-ylpiperazin-1-yl)butyl]-5,6,7,8-tetrahydro-3H-quinazolin-4-one]",94.5
